The text below walks through data of paper PMC4019466, “RNA Mimicry by the Fap7 Adenylate Kinase in Ribosome Biogenesis” (PLoS Biology, 2014).

The target in data set [1] is T1, yFap7 (Saccharomyces cerevisiae, UniProt Q12055).
T1 construct: gene FAP7; full-length, His-tagged, pRSF-DUET, expressed in E. coli Rosetta 2DE3; calculated monomer mass 23,916 (SAXS sample)
T1 sequence (Q12055 1-197): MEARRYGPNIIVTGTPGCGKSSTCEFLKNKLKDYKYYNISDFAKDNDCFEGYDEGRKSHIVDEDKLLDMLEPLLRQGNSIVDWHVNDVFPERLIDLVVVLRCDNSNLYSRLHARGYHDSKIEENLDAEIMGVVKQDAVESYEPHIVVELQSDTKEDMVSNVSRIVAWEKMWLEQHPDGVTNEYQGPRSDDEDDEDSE
Nature of the data set: adenylate kinase assay coupled to pyruvate kinase / lactate dehydrogenase, NADH at […] nm. The settings on record: 5 mM MgCl2, pH 7.5, 30 °C; co-substrate ATP. Format: biochemical.

Data set [2] concerns the target T1, yFap7. Nature of the data set: native gel electrophoresis with radiolabelled ATP. The settings on record: 30 µM yFap7, 0.1 mM [γ-32P]ATP, AMP-PNP 0.1 or 1 mM. Format: binding.
Data set [3] has as its target T2, aFap7–aRps14 complex (Pyrococcus abyssi, UniProt Q9UZK4).
T2 construct: gene PYRAB11420; co-expressed from polycistronic pET21, N-terminal 6xHis on Fap7, E. coli Rosetta 2DE3; 1:1 complex, calculated mass 36,272; with Small ribosomal subunit protein uS11 (30S ribosomal protein S11)
Nature of the data set: X-ray crystal structure, […] Å. As to conditions: Mg2+; ATP binding pocket of aFap7; pH 8.5, 18 °C; two of four aFap7 copies hold ATP, two ADP.

The target of a further data set is T3, yFap7–yRps14 complex (Saccharomyces cerevisiae, UniProt Q12055).
T3 construct: gene FAP7; co-expressed from polycistronic pET21, N-terminal 6xHis on Fap7, E. coli Rosetta 2DE3; 1:1 complex, calculated mass 38,447; with Small ribosomal subunit protein uS11 (40S ribosomal protein S14)
Nature of the data set: adenylate kinase assay coupled to pyruvate kinase / lactate dehydrogenase, NADH at […] nm. Format: biochemical. As to conditions: 0.3 mM AMP, 5 mM MgCl2, pH 7.5, 30 °C; preformed complex.

The target of data set [4] is T2, aFap7–aRps14 complex. The experiment in a line: X-ray crystal structure, […] Å. The settings on record: Mg2+; ATP binding pocket of aFap7; pH 8.5, 18 °C.
Substrate in the data set “purified protein”: Nc1ncnc2c1ncn2[C@@H]1O[C@H](COP(=O)(O)OP(=O)(O)OP(=O)(O)O)[C@@H](O)[C@H]1O
The experiment in a line: purified protein. Format: biochemical, Saccharomyces cerevisiae. As to conditions: 0.3 mM AMP, 5 mM MgCl2, 60 mM KCl, 100 mM Tris-HCl pH 7.5, 30 °C, ATP 0.01–1 mM.

Data set [5] deals with T4, MBP-yRps14 (Saccharomyces cerevisiae, UniProt P06367 1-137). The experiment in a line: filter binding; 6 mM Mg2+, 150 mM KCl, E. coli tRNA 60 ug/ml; Filter binding: 30 mM Tris-HCl pH 8.0, 150 mM KCl, 6 mM MgCl2, 60 ug/ml E. coli tRNA, 20 C, 15 min, 10 fmol RNA (Fig S4D: 20 mM HEPES pH 8.0, 300 mM KCl, 5 mM MgCl2, 20 C); pull-down: IP buffer (300 mM KCl, 50 mM Hepes pH 7.5, 0.5 mM EDTA, 1 mM DTT, 10% glycerol as given for bead preparation), 5 mM MgCl2 where stated. As to conditions: protein: recombinant; tags: MBP (pETM41; His-tag purification); (radioactively labeled); hairpin.

In data set [6] the target is T4, MBP-yRps14. Nature of the data set: filter binding; 300 mM KCl, 5 mM Mg2+, HEPES pH 8.0; Filter binding: 30 mM Tris-HCl pH 8.0, 150 mM KCl, 6 mM MgCl2, 60 ug/ml E. coli tRNA, 20 C, 15 min, 10 fmol RNA (Fig S4D: 20 mM HEPES pH 8.0, 300 mM KCl, 5 mM MgCl2, 20 C); pull-down: IP buffer (300 mM KCl, 50 mM Hepes pH 7.5, 0.5 mM EDTA, 1 mM DTT, 10% glycerol as given for bead preparation), 5 mM MgCl2 where stated. The settings on record: protein: recombinant; tags: MBP (pETM41; His-tag purification); (radioactively labeled); hairpin.

The target in data set [7] is T5, yFap7 (Saccharomyces cerevisiae, UniProt Q12055 1-197).
T5 sequence: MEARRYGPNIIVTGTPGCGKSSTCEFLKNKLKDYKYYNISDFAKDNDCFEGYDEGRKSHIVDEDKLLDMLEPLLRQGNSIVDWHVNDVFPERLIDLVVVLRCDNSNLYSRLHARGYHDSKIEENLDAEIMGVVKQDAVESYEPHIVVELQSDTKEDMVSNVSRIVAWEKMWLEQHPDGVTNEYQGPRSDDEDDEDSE
The experiment in a line: filter binding; up to 3.6 uM protein; 6 mM Mg2+, 150 mM KCl; Filter binding: 30 mM Tris-HCl pH 8.0, 150 mM KCl, 6 mM MgCl2, 60 ug/ml E. coli tRNA, 20 C, 15 min, 10 fmol RNA (Fig S4D: 20 mM HEPES pH 8.0, 300 mM KCl, 5 mM MgCl2, 20 C); pull-down: IP buffer (300 mM KCl, 50 mM Hepes pH 7.5, 0.5 mM EDTA, 1 mM DTT, 10% glycerol as given for bead preparation), 5 mM MgCl2 where stated. The settings on record: protein: recombinant; tags: His; (radioactively labeled); hairpin.

Turning to `Nc1ncnc2c1ncn2[C@@H]1O[C@H](COP(=O)(O)O)[C@@H](O)[C@H]1O` [AMP], the “adenylate kinase assay coupled to pyruvate kinase / lactate dehydrogenase, NADH” value on yFap7 [1] was “the AK activity of yFap7 with respect to AMP”.
Consider `Nc1ncnc2c1ncn2[C@@H]1O[C@H](COP(=O)(O)OP(=O)(O)NP(=O)(O)O)[C@@H](O)[C@H]1O` [AMPPNP], for which, at yFap7 [2], the “native gel electrophoresis with radiolabelled ATP” value was “Fap7 binds AMPPNP and ATP−Mg with the same (AMPPNP) or a slightly lower”.
As to `Nc1ncnc2c1ncn2[C@@H]1O[C@H](COP(=O)(O)OP(=O)(O)OP(=O)(O)O)[C@@H](O)[C@H]1O` [ATP], on aFap7–aRps14 complex [3], the “X-ray crystal structure, 2.45 Å” value is “In the ATP-bound crystal form, two copies of aFap7 are bound by ATP”. For the same molecule, the “adenylate kinase assay coupled to pyruvate kinase / lactate dehydrogenase, NADH” value at yFap7–yRps14 complex is on record as “yFap7–yRps14 complex showed almost complete inhibition of the Fap7 AK activity”.
In the case of `Nc1ncnc2c1ncn2[C@@H]1O[C@H](COP(=O)(O)OP(=O)(O)O)[C@@H](O)[C@H]1O` [ADP], the “X-ray crystal structure, 2.12 Å” value at aFap7–aRps14 complex [4] was 4cwn and 4cw7 for the ADP- and ATP-bound structures.

B1: yFap7 (Saccharomyces cerevisiae S288C) (protein)
chain: MEARRYGPNIIVTGTPGCGKSSTCEFLKNKLKDYKYYNISDFAKDNDCFEGYDEGRKSHIVDEDKLLDMLEPLLRQGNSIVDWHVNDVFPERLIDLVVVLRCDNSNLYSRLHARGYHDSKIEENLDAEIMGVVKQDAVESYEPHIVVELQSDTKEDMVSNVSRIVAWEKMWLEQHPDGVTNEYQGPRSDDEDDEDSE
notes: full-length, His-tagged, pRSF-DUET, expressed in E. coli Rosetta 2DE3; calculated monomer mass 23,916 (SAXS sample)
A word on the Km: it is the concentration of substrate that gives half-maximal velocity. One may read the kcat as the maximal rate divided by the concentration of active sites. As to B1, in the data set “purified protein”, the Km was 52 µM and the kcat came out at 0.00612 s⁻¹.

B2: Helix 23 of 18S rRNA (H23) (structured_RNA)
RNA: GGGAGUAUUCAAUUGUCAGAGGUGAAAUUCUUGGAUUUAUUGAAGAGU
By Kd is commonly meant a measure of binding affinity in units of concentration. As to B2, the Kd was determined as 1.5 ± 0.15 µM with MBP-yRps14 [5] and 34.9 ± 0.95 µM with MBP-yRps14 [6]. Further, in the data set with yFap7 [7], the binding result is given as “no binding”.
